Assay results taken from ChEMBL document CHEMBL1139643, “Cell differentiation inducers derived from thalidomide” (2005).

Legend:
Format in all cases: functional
HL-60 [1] = test: NBT positivity against human leukemia cell line HL-60 at 1*E-5 M
HL-60 [2] = test: Percent cell proliferation of human leukemia cell line HL-60 at 1*E-5 M
HL-60 [3] = test: Percent cell proliferation of human leukemia cell line HL-60 at 1*E-8 M
HL-60 [4] = test: NBT positivity against human leukemia cell line HL-60 at 1*E-8 M
HL-60 [5] = test: NBT positivity against human leukemia cell line HL-60 at 3*E-6 M
HL-60 [6] = test: Percent cell proliferation of human leukemia cell line HL-60 at 3*E-6 M
HL-60 [7] = test: Percent cell proliferation of human leukemia cell line HL-60 at 2*E-9 M
HL-60 [8] = test: NBT positivity against human leukemia cell line HL-60 at 2*E-9 M
HL-60 [9] = test: Percent cell proliferation of human leukemia cell line HL-60 at 5*E-6 M
HL-60 [10] = test: NBT positivity against human leukemia cell line HL-60 at 1*E-6 M
HL-60 [11] = test: NBT positivity against human leukemia cell line HL-60 at 5*E-6 M
HL-60 [12] = test: Percent cell proliferation of human leukemia cell line HL-60 at 1*E-6 M

SMILES | NBT positivity (HL-60 [1]) | Cell proliferation (HL-60 [2]) | further results
O=C1CCC(N2C(=O)c3ccccc3C2=O)C(=O)N1O (stereo not drawn) | 1% | 100% | –
C=C1/C(=C\C=C2/CCC[C@]3(C)[C@@H]([C@H](C)CCCC(C)(C)O)CC[C@@H]23)C[C@@H](O)C[C@@H]1O [CALCITRIOL] | – | – | Cell proliferation (HL-60 [3]): 55%; NBT positivity (HL-60 [4]): 39%
CC(C)c1cccc(C(C)C)c1N1C(=O)c2ccccc2C1=O | 9% | 24% | –
CC1(N2C(=O)c3ccc(N)cc3C2=O)CCC(=O)NC1=O (stereo not drawn) | 1% | 103% | –
CC1(N2C(=O)c3cccc(N)c3C2=O)CCC(=O)NC1=O (stereo not drawn) | 2% | 92% | –
O=C1CCC(N2C(=O)c3ccccc3C2=O)C(=O)N1 (stereo not drawn) [THALIDOMIDE] | 1% | 101% | –
CC(C)c1cccc(C(C)C)c1N1C(=O)c2cccc(O)c2C1=O | 3% | 76% | –
CC(C)c1cccc(C(C)C)c1N1C(=O)c2cccc(N)c2C1=O | 16% | 25% | NBT positivity (HL-60 [5]): 2%; Cell proliferation (HL-60 [6]): 73%
CC(C)c1cccc(C(C)C)c1N1C(=O)c2ccc(N)cc2C1=O | 5% | 53% | –
CC1=C(/C=C/C(C)=C/C=C/C(C)=C/C(=O)O)C(C)(C)CCC1 [TRETINOIN] | – | – | Cell proliferation (HL-60 [7]): 45%; NBT positivity (HL-60 [8]): 52%
CC(C)c1cccc(C(C)C)c1N1C(=O)c2ccc(O)cc2C1=O | – | – | NBT positivity (HL-60 [5]): 8%; Cell proliferation (HL-60 [9]): 10%; NBT positivity (HL-60 [10]): 3%; NBT positivity (HL-60 [11]): 55%; Cell proliferation (HL-60 [6]): 43%; Cell proliferation (HL-60 [12]): 94%
